Measurements from patent US10207993B2 (priority 2014, dated 2019).

test system: H37Rv; test: microbe, parasite or virus in culture; type: cell-based, M. tuberculosis; conditions: 0.5 µM

SMILES	H37Rv % Inhibition at 500 nM [%]
CN1CCCC(NC(=O)C(O)(c2ccccc2)c2ccccc2)C1 (stereo in doubt) [Compound 1032, (R)-2-Hydroxy-N-(1-methylpiperidin-3-yl)-2,2-diphenylacetamide]	72
CN1CCCC(NC(=O)[C@H](O)c2ccccc2)C1 (stereo in doubt) [Compound 1045, (R)-2-Hydroxy-N-((S)-1-methylpiperidin-3-yl)-2-phenylacetamide]	66
CN1CCC(OC(=O)C(O)c2ccccc2)CC1 (stereo in doubt) [Compound 1047, (S)-1-Methylpiperidin-4-yl 2-hydroxy-2-phenylacetate]	68
O=C(NC1CCN(Cc2ccccc2)CC1)C(O)(c1ccccc1)c1ccccc1 [Compound 1021, N-(1-Benzylpiperidin-4-yl)-2-hydroxy-2,2-diphenylacetamide]	74
O=C(Nc1cccnc1)[C@H](O)c1ccccc1 [Compound 1055, (R)-2-Hydroxy-2-phenyl-N-(pyridin-3-yl)acetamide]	52

same assay, conditions: Mycobacterium tuberculosis, H37RV, THP-1, 90 h, read-out: H37Rv % Inhibition at 500 nM

SMILES	inhibition at 0.5 µM [%]
O=C(NC1CCCN(Cc2ccccc2)C1)C(O)(c1ccccc1)c1ccccc1 (stereo in doubt) [Compound 1029, (R)-N-(1-Benzylpiperidin-3-yl)-2-hydroxy-2,2-diphenylacetamide]	61
O=C(Nc1cccnc1)C(O)c1ccccc1 (stereo in doubt) [Compound 1046, (S)-2-Hydroxy-2-phenyl-N-(pyridin-3-yl)acetamide]	56
COC(C(=O)OC1CCCN(C)C1)c1ccccc1 (stereo in doubt) [Compound 1059, (S)-(R)-1-Methylpiperidin-3-yl 2-methoxy-2-phenylacetate]	74
C[N+]12CCC(CC1)C(OC(=O)C(O)(c1ccccc1)c1ccccc1)C2 (centres unmarked) [Compound 1008, 3-(2-Hydroxy-2,2-diphenylacetoxy)-1-methylquinuclidin-1-ium]	42
O=C(NC1CCCNC1)C(O)(c1ccccc1)c1ccccc1 (centres unmarked) [Compound 1016, 2-Hydroxy-2,2-diphenyl-N-(piperidin-3-yl)acetamide]	65
O=C(NC1CCN(Cc2ccccc2)CC1)C(O)(c1ccccc1)c1ccccc1 [Compound 1017, N-(1-Benzylpiperidin-4-yl)-2-hydroxy-2,2-diphenylacetamide]	75
CN1CCCC(NC(=O)C(O)(c2ccccc2)c2ccccc2)C1 (centres unmarked) [Compound 1020, 2-Hydroxy-N-(1-methylpiperidin-3-yl)-2,2-diphenylacetamide]	64
O=C(NC1CN(Cc2ccccc2)C1)C(O)(c1ccccc1)c1ccccc1 [Compound 1022, N-(1-Benzylazetidin-3-yl)-2-hydroxy-2,2-diphenylacetamide]	75
O=C(N[C@@H]1CCCN(Cc2ccccc2)C1)C(O)(c1ccccc1)c1ccccc1 [Compound 1028, (R)-N-(1-Benzylpiperidin-3-yl)-2-hydroxy-2,2-diphenylacetamide]	77
O=C(NC1CCNCC1)C(O)(c1ccccc1)c1ccccc1 [Compound 1030, 2-Hydroxy-2,2-diphenyl-N-(piperidin-4-yl)acetamide]	52
CN1CCC[C@H](NC(=O)C(O)(c2ccccc2)c2ccccc2)C1 [Compound 1031, (S)-2-Hydroxy-N-(1-methylpiperidin-3-yl)-2,2-diphenylacetamide]	74
O=C(N[C@@H]1CCCN(Cc2ccccc2)C1)C(c1ccccc1)c1ccccc1 [Compound 1034, (R)-N-(1-Benzylpiperidin-3-yl)-2,2-diphenylacetamide]	64
O=C(N[C@H]1CCCN(Cc2ccccc2)C1)C(O)c1ccccc1 (stereo partly drawn) [Compound 1035, N-((S)-1-Benzylpiperidin-3-yl)-2-hydroxy-2-phenylacetamide]	62
CC(O)(C(=O)N[C@@H]1CCCN(Cc2ccccc2)C1)c1ccccc1 (stereo partly drawn) [Compound 1036, N-((R)-1-Benzylpiperidin-3-yl)-2 hydroxy-2-phenylpropanamide]	58
CN1CCC[C@@H](OC(=O)[C@H](O)c2ccccc2)C1 [Compound 1037, (R)-(R)-1-Methylpiperidin-3-yl 2-hydroxy-2-phenylacetate]	40
CN1CCC[C@H](OC(=O)[C@H](O)c2ccccc2)C1 [Compound 1038]	56
CN1CCC[C@@H](OC(=O)[C@@H](O)c2ccccc2)C1 [Compound 1039]	61
CN1CCC[C@H](OC(=O)[C@@H](O)c2ccccc2)C1 [Compound 1040, (S)-(S)-1-Methylpiperidin-3-yl 2-hydroxy-2-phenylacetate]	79

SMILES	inhibition at 0.5 µM [%]
CN1CCC(OC(=O)[C@H](O)c2ccccc2)CC1 [Compound 1041, (R)-1-Methylpiperidin-4-yl 2-hydroxy-2-phenylacetate]	71
CN1CCC(NC(=O)[C@@H](O)c2ccccc2)CC1 [Compound 1042, (S)-2-Hydroxy-N-(1-methylpiperidin-4-yl)-2-phenylacetamide]	73
CN1CCC(NC(=O)[C@H](O)c2ccccc2)CC1 [Compound 1043, (R)-2-Hydroxy-N-(1-methylpiperidin-4-yl)-2-phenylacetamide]	72
CN1CCC[C@@H](NC(=O)[C@H](O)c2ccccc2)C1 [Compound 1044, (R)-2-Hydroxy-N-((R)-1-methylpiperidin-3-yl)-2-phenylacetamide]	65
O=C(OC1CN(Cc2ccccc2)C1)[C@@H](O)c1ccccc1 [Compound 1048, (S)-1-Benzylazetidin-3-yl 2-hydroxy-2-phenylacetate]	79
O=C(NC1CCN(Cc2ccccc2)CC1)[C@H](O)c1ccccc1 [Compound 1051, (R)-N-(1-Benzylpiperidin-4-yl)-2-hydroxy-2-phenylacetamide]	59
O=C(NC1CCN(Cc2ccccc2)CC1)[C@@H](O)c1ccccc1 [Compound 1052, (S)-N-(1-Benzylpiperidin-4-yl)-2-hydroxy-2-phenylacetamide]	73
C[N+]1(C)CCC[C@@H](OC(=O)[C@H](O)c2ccccc2)C1 [Compound 1053, (R)-3-((R)-2-Hydroxy-2-phenylacetoxy)-1,1-dimethylpiperidin-1-ium]	78
C[N+]1(C)CCC[C@H](OC(=O)[C@H](O)c2ccccc2)C1 [Compound 1054, (S)-3-((R)-2-Hydroxy-2-phenylacetoxy)-1,1-dimethylpiperidin-1-ium]	74
CC(=O)O[C@@H](C(=O)O[C@H]1CCCN(C)C1)c1ccccc1 [Compound 1056]	78
CN1CC[C@@H](OC(=O)[C@H](O)c2ccccc2)C1 [Compound 1057, (R)-(R)-1-Methylpyrrolidin-3-yl 2-hydroxy-2-phenylacetate]	76
CN1CC[C@H](OC(=O)[C@H](O)c2ccccc2)C1 [Compound 1058]	55
COC(C(=O)O)c1ccccc1 (centres unmarked) [Compound 1060, 2-Methoxy-2-phenylacetic acid]	78
CO[C@@H](C(=O)N1CCOC[C@@H]1C)c1ccccc1 [Compound 1074, (R)-2-Methoxy-1-((S)-3-methylmorpholino)-2-phenylethanone]	24
CO[C@@H](C(=O)N1CCOC[C@H]1C)c1ccccc1 [Compound 1075, (R)-2-Methoxy-1-((R)-3-methylmorpholino)-2-phenylethanone]	46
CO[C@@H](C(=O)N1CCO[C@H](C)[C@@H]1C)c1ccccc1 [Compound 1076, (R)-1-((2R,3S)-2,3-Dimethylmorpholino)-2-methoxy-2-phenylethanone]	50
CO[C@H](C(=O)N1CCOC[C@@H]1C)c1ccccc1 [Compound 1077, (S)-2-Methoxy-1-((S)-3-methylmorpholino)-2-phenylethanone]	52

molecular target: GPR109A (Homo sapiens, UniProt Q8TDS4); test: not given; type: cell-based; conditions: not given
Sequence (Q8TDS4 whole entry): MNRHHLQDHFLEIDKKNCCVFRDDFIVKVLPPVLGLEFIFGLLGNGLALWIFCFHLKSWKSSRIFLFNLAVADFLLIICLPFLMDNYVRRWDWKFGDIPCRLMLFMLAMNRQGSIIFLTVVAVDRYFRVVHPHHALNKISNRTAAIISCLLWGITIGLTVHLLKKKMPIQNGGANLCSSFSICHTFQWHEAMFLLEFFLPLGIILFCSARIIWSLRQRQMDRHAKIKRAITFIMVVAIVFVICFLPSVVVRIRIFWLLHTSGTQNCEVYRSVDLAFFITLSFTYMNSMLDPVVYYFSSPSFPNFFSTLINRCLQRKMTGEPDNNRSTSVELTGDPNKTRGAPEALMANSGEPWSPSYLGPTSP

SMILES	effect on intracellular cAMP levels
CC(O)CC(=O)O (centres unmarked) [Compound 3HBA, 3-hydroxybutyric acid]	reduces intracellular cAMP levels
